Test systems include A549 NSCLC; BT-549 breast; HS 578T breast; HT29 colon; KM12 colon; M14 melanoma; OVCAR-5 ovarian; SW-620 colon; UACC-257 melanoma; SNB-75 CNS.
What all share (assay): growth of human tumour cells (NCI), 48 h

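The compound was tested at five concentrations on cells cultured in 96-well plates, with a 48-hour exposure period. Abbreviation: GI50, concentration required for 50% inhibition of growth. TGI denotes the concentration required for complete inhibition of growth.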

`COc1ccc(N(/C=C/C(=O)C(F)(F)F)CC(=O)c2ccc(Cl)c(Cl)c2)cc1`: the GI50 in the assay with A549 NSCLC is 17.7 µM; in the assay with BT-549 breast it was 7.57 µM; in the assay with HS 578T breast, 4.81 µM; with HT29 colon, 29.8 µM; in the assay on KM12 colon it was 11.6 µM; with M14 melanoma it was 12.7 µM. The GI50 in the assay with OVCAR-5 ovarian was 16.5 µM; with SW-620 colon, 27 µM; in the assay on UACC-257 melanoma, 16.7 µM. The TGI in the assay on A549 NSCLC was 68 µM; in the assay on BT-549 breast it was 22 µM; in the assay on HS 578T breast, 14.6 µM; in the assay with HT29 colon, more than 100 µM; in the assay on KM12 colon, 37.3 µM; in the assay on M14 melanoma it was 25.6 µM. The TGI is 30.2 µM in the assay with OVCAR-5 ovarian, more than 100 µM in the assay on SW-620 colon and 35.4 µM in the assay with UACC-257 melanoma.
Turning to `COc1ccc2c(c1)/C(=C/c1cc(OC)c(OC)c(OC)c1)C(=O)N2C`, the GI50 is 3.64 µM in the assay on A549 NSCLC; 2.84 µM in the assay with BT-549 breast; 1.43 µM in the assay on HS 578T breast; 2.9 µM in the assay with HT29 colon; 1.76 µM in the assay on KM12 colon; 5.49 µM with OVCAR-5 ovarian. Besides, the GI50 with SNB-75 CNS was 2.29 µM; in the assay with SW-620 colon, 1.59 µM; in the assay on UACC-257 melanoma, 7.88 µM. Besides, the TGI is more than 67.1 µM in the assay with A549 NSCLC; more than 30.4 µM in the assay with BT-549 breast; 4.61 µM with HS 578T breast; more than 88.1 µM in the assay with HT29 colon; 4.95 µM with KM12 colon; more than 100 µM in the assay on OVCAR-5 ovarian. Further, the TGI with SNB-75 CNS is more than 21.4 µM; with SW-620 colon, 8.66 µM; in the assay on UACC-257 melanoma, more than 80.4 µM.
Consider `N#Cc1c(N)nc(N2CCOCC2)c(C#N)c1-c1ccccc1Cl`, for which the GI50 was 66.5 µM in the assay with A549 NSCLC; 30.5 µM in the assay with BT-549 breast; 23.6 µM in the assay on HS 578T breast; 57 µM with HT29 colon; 60.9 µM in the assay on M14 melanoma; 26.4 µM in the assay with OVCAR-5 ovarian. In addition, the GI50 in the assay on SNB-75 CNS was 0.414 µM; in the assay on SW-620 colon it was more than 100 µM; with UACC-257 melanoma, 47.9 µM. The TGI with A549 NSCLC, in the assay with BT-549 breast, in the assay with HS 578T breast, in the assay on HT29 colon, in the assay with M14 melanoma and in the assay on OVCAR-5 ovarian was more than 100 µM throughout. Besides, the TGI was 32.6 µM in the assay on SNB-75 CNS, more than 100 µM in the assay on SW-620 colon and more than 100 µM in the assay on UACC-257 melanoma.
For the compound `COc1cc2c(cc1OCCCCOc1ccc(-c3nc4ccccc4s3)cc1)N=C[C@@H]1CCCN1C2=O`, the GI50 was 2.8 µM with A549 NSCLC; 0.93 µM in the assay with BT-549 breast; 0.891 µM in the assay with HS 578T breast; 0.819 µM in the assay on HT29 colon; 0.908 µM in the assay on M14 melanoma; 0.861 µM in the assay with OVCAR-5 ovarian. For the same compound, the GI50 with SNB-75 CNS was 1.26 µM; in the assay on SW-620 colon it was 0.426 µM; in the assay on UACC-257 melanoma it was 2.63 µM. For the same compound, the TGI in the assay on A549 NSCLC stood at 8.15 µM; with BT-549 breast, 2.38 µM; in the assay with HS 578T breast, 4.43 µM; with HT29 colon, 15.8 µM; with M14 melanoma it was 2.39 µM; in the assay on OVCAR-5 ovarian it was 3.86 µM. Besides, the results for the TGI in the assay with SNB-75 CNS, in the assay on SW-620 colon and with UACC-257 melanoma were 2.63 µM, 1.77 µM and 7.06 µM, respectively.
Consider `C=C1C[C@@]2(C)C(CC[C@]3(C)C2CC=C2C4CC(C)(C)C[C@@H](OC(=O)/C(C)=C\C)[C@]4(C(=O)O)CC[C@]23C)C(C)(C)C1=O` (stereo not given in full), for which the GI50 was 3.8 µM in the assay with A549 NSCLC; 1.91 µM in the assay with BT-549 breast; 5.21 µM with HS 578T breast; 2.55 µM in the assay on HT29 colon; 3.84 µM in the assay on KM12 colon; 2.39 µM in the assay with M14 melanoma. Further, the figures for the GI50 in the assay with OVCAR-5 ovarian, with SW-620 colon and with UACC-257 melanoma were 3.17 µM, 2.74 µM and 3.53 µM, respectively. Besides, the TGI is 25.8 µM in the assay with A549 NSCLC; 3.68 µM in the assay with BT-549 breast; 34.4 µM in the assay on HS 578T breast; 6.81 µM in the assay with HT29 colon; 15.9 µM in the assay on KM12 colon; 8.49 µM in the assay on M14 melanoma. The TGI in the assay with OVCAR-5 ovarian is 10.3 µM; in the assay on SW-620 colon it was 9.31 µM; with UACC-257 melanoma it was 16.4 µM.
As to `Cc1cc2cn3c4cccnc4[nH]c(=O)c3c2cc1C`, the GI50 in the assay on BT-549 breast is 12.2 µM; in the assay on HS 578T breast, 1.85 µM; with KM12 colon, 1.15 µM; in the assay on OVCAR-5 ovarian, 1.66 µM; in the assay with SNB-75 CNS, 1.43 µM; with SW-620 colon, 1.09 µM. In the assay with UACC-257 melanoma, the GI50 was 1.67 µM. Further, the TGI in the assay on BT-549 breast worked out at 29.4 µM; in the assay on HS 578T breast, 4.38 µM; in the assay with KM12 colon it was 2.56 µM; in the assay with OVCAR-5 ovarian, 3.02 µM; in the assay with SNB-75 CNS it was 3.08 µM; in the assay on SW-620 colon it was 2.47 µM. The TGI in the assay on UACC-257 melanoma came out at 3.41 µM.
In the case of `C=C1C(=O)O[C@H]2[C@H]1CC/C(Cn1cc(-c3cc(C)c(C)cc3C)nn1)=C\CC[C@@]1(C)O[C@@H]21`, the GI50 with A549 NSCLC is 1.73 µM; in the assay on BT-549 breast, 0.753 µM; in the assay on HS 578T breast it was 1.94 µM; in the assay with HT29 colon it was 0.502 µM; in the assay with KM12 colon, 2.31 µM; with M14 melanoma, 1.5 µM. Moreover, the GI50 in the assay with OVCAR-5 ovarian is 1.74 µM; with SNB-75 CNS, 0.521 µM; with SW-620 colon, 0.424 µM. The TGI worked out at 4.31 µM with A549 NSCLC; 2.66 µM in the assay with BT-549 breast; 6.2 µM in the assay with HS 578T breast; 1.91 µM in the assay on HT29 colon; 6.62 µM with KM12 colon; 3.27 µM in the assay on M14 melanoma. For the same compound, the results for the TGI with OVCAR-5 ovarian, with SNB-75 CNS and in the assay with SW-620 colon were 4.38 µM, 8.45 µM and 1.54 µM, respectively.
Regarding `O=[N+]([O-])c1ccc2nc3ccccc3cc2c1`, the TGI amounted to 8.95 µM with A549 NSCLC; 21.7 µM in the assay with BT-549 breast; 27.4 µM with HS 578T breast; 4.4 µM with HT29 colon; 18.1 µM in the assay with M14 melanoma; 7.06 µM with OVCAR-5 ovarian. Further, the results for the TGI in the assay on SNB-75 CNS, with SW-620 colon and in the assay with UACC-257 melanoma were 6.53 µM, 14.3 µM and 5.86 µM, respectively.
For `COc1ccccc1-c1cc(=O)c2ccc(OC)c(OC)c2o1`, the TGI with A549 NSCLC, in the assay on BT-549 breast, in the assay on HS 578T breast, in the assay with HT29 colon, with M14 melanoma and with OVCAR-5 ovarian was more than 100 µM each time. Moreover, the TGI with SNB-75 CNS, with SW-620 colon and in the assay with UACC-257 melanoma was more than 100 µM in each case.

The values are drawn from PubChem BioAssay (NCI).
